Laboratory results: article PMC6707612, “Cyclic-di-GMP binds to histidine kinase RavS to control RavS-RavR phosphotransfer and regulates the bacterial lifestyle transition between virulence and swimming” (PLoS Pathogens, 2019)
Values joined by “and” are separate entries in the source; they are usually repeats but may differ in a detail not shown here. Identical values can stand only once.

Columns and labels:
Experiment in all cases: microscale thermophoresis (MST) binding
Conditions in all cases: 20 nM fluorescein-labelled nucleotide, read-out: dissociation constant (Kd)
VgrS = VgrS (Xanthomonas campestris pv. campestris, UniProt Q8P666)
VgrS, sequence (Q8P666 entry or part of it): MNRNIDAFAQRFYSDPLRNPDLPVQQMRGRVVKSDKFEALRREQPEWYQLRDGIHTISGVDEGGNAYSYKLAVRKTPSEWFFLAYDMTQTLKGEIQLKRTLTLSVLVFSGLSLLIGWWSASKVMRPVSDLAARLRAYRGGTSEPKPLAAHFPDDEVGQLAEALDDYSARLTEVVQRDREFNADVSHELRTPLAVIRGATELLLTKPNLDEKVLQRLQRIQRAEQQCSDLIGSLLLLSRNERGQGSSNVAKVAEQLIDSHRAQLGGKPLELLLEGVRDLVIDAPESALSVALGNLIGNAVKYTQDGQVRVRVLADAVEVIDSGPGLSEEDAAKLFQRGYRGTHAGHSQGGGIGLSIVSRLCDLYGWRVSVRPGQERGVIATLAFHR
Experimental: (§1) The interaction between c-di-GMP nucleotides and various proteins was measured by using MST with a fluorescein-labelled c-di-GMP (2′-Fluo-AHC-c-di-GMP, abbreviated as fl-c-di-GMP; 2′-Fluo-AHC-c-di-AMP, fl-c-di-AMP; 2′-Fluo-AHC-cGMP, fl-cGMP; Biolog, Germany). These chemicals contain carboxyfluorescein that has excitation and emission wavelengths of 497 nm and 520 nm, respectively, which can be detected directly by a MST instrument. The experiments were performed on a Monolith NT.115 device using standard treated capillaries (NanoTemper Technologies, Germany). The concentration of the particular protein varied from 0.036 to 150 μM with a 2-fold gradient and the concentration of fl-c-di-GMP was constant at 20 nM. Fluorescence intensity due to thermophoresis was recorded using the blue channel optics of the instrument (λex = 470 ± 15 nm, λem = 520 ± 10 nm) during a 30 s period of infrared laser heating at 80% of the maximum laser power, followed by a 5 s cooling period. Measurements were performed in buffer containing 20 mM HEPES, pH 7.5, 150 mM NaCl, 2 mM MgCl2, 2 mM DTT and 0.05% Tween 20. […]
(§2) Supplementary file ppat.1007952.s007.pdf: S7 Fig c-di-GMP specifically binds to RavS to enhance the RavS-RavR phosphotransfer. […] The interactions of RavS^ΔN, RavA, VgrS and RavR^ΔEAL with fl-c-di-GMP were measured by microscale thermophoresis (MST). Twenty nanomolar fluorescein-labelled nucleotides and increasing concentrations of proteins were co-incubated and potential interactions were measured by MST. The dissociation constant (Kd) was determined to estimate the binding affinity. […]
(§3) (b) RavSΔN specifically interacts with fl-c-di-GMP. The interactions of RavSΔN, RavA, VgrS and RavRΔEAL with fl-c-di-GMP were measured by microscale thermophoresis (MST). Twenty nanomolar fluorescein-labelled nucleotide and increasing concentrations of proteins were co-incubated and potential interactions were measured by MST.
(§4) The dissociation constant (Kd) was determined to estimate the binding affinity. […]

RavS^ΔN = target: T1, RavS^ΔN (Xanthomonas campestris pv. campestris, UniProt Q8P9A6)
T1 sequence (Q8P9A6 352-697): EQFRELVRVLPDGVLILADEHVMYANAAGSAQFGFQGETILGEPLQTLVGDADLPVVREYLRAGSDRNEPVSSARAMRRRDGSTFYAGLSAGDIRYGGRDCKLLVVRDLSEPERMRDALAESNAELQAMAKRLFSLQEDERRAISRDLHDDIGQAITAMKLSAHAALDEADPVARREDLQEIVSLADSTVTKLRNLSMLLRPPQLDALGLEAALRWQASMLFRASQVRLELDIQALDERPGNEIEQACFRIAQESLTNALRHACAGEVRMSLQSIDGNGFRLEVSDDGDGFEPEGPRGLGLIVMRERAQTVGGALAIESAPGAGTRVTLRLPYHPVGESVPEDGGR
Experimental: as §1, §2, §3, §4

RavA = RavA (Xanthomonas campestris pv. campestris, UniProt Q8P9A8)
RavA, sequence (Q8P9A8 entry or part of it): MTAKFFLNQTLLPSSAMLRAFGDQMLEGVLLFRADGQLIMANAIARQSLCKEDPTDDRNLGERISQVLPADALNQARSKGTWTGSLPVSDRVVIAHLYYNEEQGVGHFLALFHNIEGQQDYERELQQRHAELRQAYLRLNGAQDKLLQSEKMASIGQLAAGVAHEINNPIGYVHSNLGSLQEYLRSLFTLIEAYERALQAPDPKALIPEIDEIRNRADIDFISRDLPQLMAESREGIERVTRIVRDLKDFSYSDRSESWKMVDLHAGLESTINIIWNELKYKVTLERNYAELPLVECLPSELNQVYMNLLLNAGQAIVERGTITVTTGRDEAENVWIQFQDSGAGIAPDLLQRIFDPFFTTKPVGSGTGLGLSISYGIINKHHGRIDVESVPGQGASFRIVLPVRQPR
Experimental: as §1, §2, §3, §4

Nc1nc2c(ncn2[C@@H]2O[C@@H]3COP(=O)(O)O[C@H]4[C@@H](OC(=O)NCCCCCCNC(=O)c5ccc6c(c5)C(=O)OC65c6ccc(O)cc6Oc6cc(O)ccc65)[C@H](n5cnc6c(=O)[nH]c(N)nc65)O[C@@H]4COP(=O)(O)O[C@H]3[C@H]2O)c(=O)[nH]1 [fl-c-di-GMP, 2′-Fluo-AHC-c-di-GMP]
Kd (VgrS): 88.1 µM and > 80 µM
Kd (RavS^ΔN): 5.62 ± 0.74 µM
Kd (RavA): 116 µM and > 80 µM
